Source: patent US20210246109A1, “POTENT AND SELECTIVE INHIBITORS OF CYTOCHROME P450” (University of Kentucky Research Foundation, priority 2020, published 2021)
Values joined by “and” are separate entries in the source; they are usually repeats but may differ in a detail not shown here. Equal values may be shown once. Read-outs that look alike come from different tables or passages of the source.

Legend:
[1] = Cytotoxicity, resazurin, 72 hours after compound addition; format: cell-based; settings: human, HEK cells
Experimental: (§1) Cytotoxicity was assessed at 72 hours after compound addition using resazurin. The compounds that function as selective 1B1 inhibitors had no effect on cell health. This is an essential feature for any chemopreventative agent or molecules intended to block the detrimental action of an enzyme.

[2] = test system: HEK; experiment: as above; format: cell-based; settings: Table 3, HEK
Experimental: as §1

[3] = target: T1, CYP1B1 (Homo sapiens, UniProt Q16678); experiment: EROD assay in inducible CYP1B1 cell line; format: cell-based
T1 construct: expressed in transfected cells
T1 sequence (Q16678 1-543): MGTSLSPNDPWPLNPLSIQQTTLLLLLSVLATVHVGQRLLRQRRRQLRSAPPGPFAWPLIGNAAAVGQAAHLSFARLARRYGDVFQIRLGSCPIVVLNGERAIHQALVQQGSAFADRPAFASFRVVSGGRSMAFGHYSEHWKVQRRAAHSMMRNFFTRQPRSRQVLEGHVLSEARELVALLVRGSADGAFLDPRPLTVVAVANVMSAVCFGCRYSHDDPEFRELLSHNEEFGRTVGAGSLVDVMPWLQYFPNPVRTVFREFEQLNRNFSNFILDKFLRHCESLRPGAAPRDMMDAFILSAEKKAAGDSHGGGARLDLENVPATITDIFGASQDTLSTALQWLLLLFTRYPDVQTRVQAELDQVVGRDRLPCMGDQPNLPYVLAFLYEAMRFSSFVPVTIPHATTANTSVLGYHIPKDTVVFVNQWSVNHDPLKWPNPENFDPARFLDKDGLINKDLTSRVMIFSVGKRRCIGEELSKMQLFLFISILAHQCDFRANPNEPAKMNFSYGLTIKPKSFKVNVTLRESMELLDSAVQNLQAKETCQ
Experimental: (§2) The activity of the inhibitors was assessed in a novel cell based assay generated for the purpose of this project. Enzymatic turnover of CYP1B1 was measured using the ethoxy-resorufin-O-deethylase (EROD) assay with the fluorescent substrate, resorufin ethyl ether. Cell lines were generated where the gene for CYP1B1 alone or CYP1B1 and cytochrome P450 reductase (CPR) were both under the control of an inducible promoter. A cell line was generated for counter screening where the gene for CYP1A1 was used. CYP1A1 is the closest family member to CYP1B1.

[4] = target: T2, pooled human liver microsomes (pHLMs) (Homo sapiens, UniProt P05177); experiment: EROD counterscreen in pooled human liver microsomes; format: biochemical; settings: for IC50: human, microsomes; for SI 1B1:HLM: selectivity index
T2 sequence (P05177 2-516): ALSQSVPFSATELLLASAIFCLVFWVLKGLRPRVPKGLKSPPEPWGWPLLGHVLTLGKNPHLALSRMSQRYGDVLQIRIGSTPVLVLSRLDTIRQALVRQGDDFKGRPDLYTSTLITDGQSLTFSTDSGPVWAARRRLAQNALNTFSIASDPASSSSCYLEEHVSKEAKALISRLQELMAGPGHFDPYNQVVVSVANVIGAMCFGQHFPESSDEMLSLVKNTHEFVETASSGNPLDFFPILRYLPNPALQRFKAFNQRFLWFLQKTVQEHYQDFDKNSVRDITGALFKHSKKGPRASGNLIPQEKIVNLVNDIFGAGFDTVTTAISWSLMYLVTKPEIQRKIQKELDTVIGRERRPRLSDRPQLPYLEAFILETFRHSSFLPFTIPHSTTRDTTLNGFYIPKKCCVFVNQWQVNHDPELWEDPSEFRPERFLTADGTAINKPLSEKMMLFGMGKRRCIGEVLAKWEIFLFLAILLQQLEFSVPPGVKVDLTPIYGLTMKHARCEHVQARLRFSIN
Description: (§3) Human liver microsomes were used as a counterscreen to experimentally determine the magnitude of inhibitor selectivity.

[5] = target: T3, CYP1A1 (Homo sapiens, UniProt P04798); experiment: EROD assay in CYP1A1 counter-screen cell line; format: cell-based; settings: for SI 1B1:1A1: selectivity index
T3 construct: expressed in transfected cells
T3 sequence (P04798 1-512): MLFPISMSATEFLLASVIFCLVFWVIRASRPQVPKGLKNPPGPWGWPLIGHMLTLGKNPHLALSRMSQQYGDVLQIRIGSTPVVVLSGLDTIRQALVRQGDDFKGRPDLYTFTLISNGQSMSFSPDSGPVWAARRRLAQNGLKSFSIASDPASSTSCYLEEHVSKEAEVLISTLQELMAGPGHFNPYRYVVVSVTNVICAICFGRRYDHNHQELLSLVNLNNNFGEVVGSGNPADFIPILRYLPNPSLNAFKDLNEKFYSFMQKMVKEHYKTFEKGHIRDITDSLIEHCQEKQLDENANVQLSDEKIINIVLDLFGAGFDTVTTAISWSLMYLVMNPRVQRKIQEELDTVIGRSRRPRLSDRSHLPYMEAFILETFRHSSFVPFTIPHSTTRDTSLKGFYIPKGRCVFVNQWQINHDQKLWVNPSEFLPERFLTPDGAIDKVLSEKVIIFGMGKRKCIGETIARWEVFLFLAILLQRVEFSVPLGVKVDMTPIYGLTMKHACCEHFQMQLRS
Experimental: as §2

[6] = target: T2, pooled human liver microsomes (pHLMs); experiment: EROD counterscreen in pooled human liver microsomes; format: biochemical; set-up: IC50 pHLM; EROD assay; settings: human, microsomes, Table 2; EROD assay
Description: as §3

[7] = Table 1, 72 hours, resazurin, read-out: Cytotoxicity IC50
[8] = human, probe resorufin ethyl ether, Table 3, read-out: IC50 1A1
[9] = Table 2, EROD assay, read-out: IC50 CYP1B1
[10] = Table 2, EROD assay, read-out: IC50 CYP1A1

Row | SMILES | IC50 ([3]; Table 3, read-out: IC50 1B1) | IC50 ([4]; Table 3, read-out: IC50 pHLM) [nM] | HEK cell viability % at 10 μM [2] [%] | IC50 ([5]; Table 3, read-out: IC50 1A1) | also measured
1 | COc1ccc(/C=C/c2ccncn2)c(OC)c1 [GL433] | 76 nM | 910 ± 370 |  |  | IC50 at 72 h [1, 7]: > 10000 nM; IC50 ([2]; read-out: HEK cytotoxicity): > 10000 nM; activity as CYP1B1 inhibitor, in words [3]: potent; IC50 ([3]; Table 1, read-out: CYP1B1 IC50): 76 nM; IC50 ([4]; Table 1, read-out: hLM IC50): 1100 nM; IC50 ([5]; human, probe resorufin ethyl ether, Table 1, read-out: CYP1A1 IC50): 10000 nM; IC50 [5, 8]: 10000 nM
2 | COc1ccc(/C=C/c2cnccn2)c(OC)c1 [GL435] | 510 nM | 1570 ± 290 | 71.4 | 2600 nM | 
3 | COc1cc(/C=C/c2cnccn2)cc(OC)c1 [GL437] | 660 nM | 5270 ± 1600 | 103.1 | 4280 nM and 3290 nM | 
4 | COc1cc(/C=C/c2ccncn2)cc(OC)c1 [GL443] | 760 nM | 2300 ± 980 | 105.2 | > 10000 nM | 
5 | COc1cc(OC)c(/C=C/c2ccncn2)c(OC)c1 [GL456] | 210 nM | 150 ± 80 | 93.6 | > 10000 nM | IC50 [5, 8]: 10000 nM
6 | COc1ccc(/C=C/c2cccnc2)c(OC)c1 [GL457] | 310 nM | 420 ± 240 | 91.5 | 403 nM and 360 nM | 
7 | COc1ccc(/C=C/c2cncnc2)c(OC)c1 [GL458] | 2510 nM | 2260 ± 1050 | 95.8 | 4130 nM and 2500 nM | 
8 | COc1cc(/C=C/c2ccncn2)cc(OC)c1OC [GL465] | 260 nM | 4400 ± 1710 | 83.4 | 730 nM and 740 nM | 
9 | C#CCOc1ccc(/C=C/c2ccncn2)cc1 [GL508] | 105 nM | 32900 | 93.4 | 5600 nM | IC50 [5, 8]: 10000 nM
10 | C#CCOc1ccc(-c2nc3ccccc3c(=O)[nH]2)cc1 [GL510] |  | 857 |  |  | IC50 at 72 h ([1]; Table 3, HEK, read-out: HEK cytotoxicity): 406 nM
11 | O=c1[nH]c(-c2ccc(OC/C(I)=C\I)cc2)nc2ccccc12 [GL511] | 11.8 nM | 7710 | 64.3 | > 10000 nM | 
12 | COc1ccc(-c2nc(O)c3ccccc3n2)c(OC)c1 [GL512] | 11.6 nM | 16900 | 85.3 | 2400 nM and 1040 nM | 
13 | COc1ccc(-c2nc3ccc(I)cc3c(=O)[nH]2)c(OC)c1 [GL513] | 36 nM | 26200 | 83.4 | 121 nM and 75 nM and 91 nM | 
14 | C#CCn1c(-c2ccc(OC)cc2OC)nc2ccc(I)cc2c1=O [GL514] | 660 nM | 105000 | 72.5 | 4420 nM and 3500 nM | 
15 | C#CCOc1ccc(-c2nc3ccc(I)cc3c(=O)[nH]2)cc1 [GL516] | 14 nM | 126000 | 40.8 | 4580 nM and 2460 nM and 1900 nM | 
16 | COc1ccc(-c2nc3ccccc3c(=O)n2C)c(OC)c1 [GL517] | > 500 nM | 146000 | 107 | > 10000 nM | 
17 | N#CCOc1ccc(-c2nc3ccccc3c(=O)[nH]2)cc1 [GL520] | 0.88 nM and 0.92 nM | 1740 | 89 | 2570 nM | 
18 | COc1cc(-c2nc3ccccc3c(=O)[nH]2)ccc1OCC#N [GL522] |  | > 10000 | 80.6 | 2270 nM and 970 nM | 
19 | N#CCOc1ccc(/C=C/c2ccncn2)cc1 [GL543] | 4.9 nM and 6.4 nM |  |  | > 10000 nM | IC50 at 72 h [1, 7]: > 10000 nM; IC50 ([3]; Table 1, read-out: CYP1B1 IC50): 4.9 nM; IC50 ([4]; Table 1, read-out: hLM IC50): > 10000 nM; IC50 ([5]; Table 1, read-out: CYP1A1 IC50): > 10000 nM
20 | N#CCOc1ccc(-c2nc(OCCCNC(=O)OCCOCCOCCOC(=O)NC34CC5CC(CC(C5)C3)C4)c3ccccc3n2)cc1 [GL581] | < 2.5 nM | > 10000 |  | 3580 nM | IC50 at 72 h [1, 7]: > 10000 nM; IC50 ([3]; Table 1, read-out: CYP1B1 IC50): 0.12 nM; IC50 ([5]; Table 1, read-out: CYP1A1 IC50): 3600 nM
21 | COc1ccc(-c2csc(-c3ccc(O)cc3)n2)c(OC)c1 [GL650] |  |  |  |  | IC50 [3, 9]: 61.9 nM; SI 1B1:HLM [4]: 89.7; IC50 [5, 10]: 1960 nM; SI 1B1:1A1 [5]: 32; IC50 [6]: 5550 nM
22 | COc1ccc(-c2csc(-c3cccnc3)n2)c(OC)c1 [GL654] |  |  |  |  | IC50 [3, 9]: 19.8 nM; SI 1B1:HLM [4]: 0.00082; IC50 [5, 10]: 151 nM; SI 1B1:1A1 [5]: 7.6; IC50 [6]: 0.1 nM
23 | Oc1ccc(-c2csc(-c3cccnc3)n2)cc1 [GL671] |  |  |  |  | IC50 [3, 9]: 2230 nM; SI 1B1:HLM [4]: 0.024; IC50 [5, 10]: 1410 nM; SI 1B1:1A1 [5]: 0.63; IC50 [6]: 526 nM
24 | Oc1ccc(-c2csc(-c3ccccn3)n2)cc1 [GL672] |  |  |  |  | IC50 [3, 9]: 1020 nM; SI 1B1:HLM [4]: 1.63; IC50 [5, 10]: 1320 nM; SI 1B1:1A1 [5]: 1.3; IC50 [6]: 1650 nM
25 | COc1ccc(-c2nc(-c3ccc(F)c(C(F)(F)F)c3)cs2)c(OC)c1 [GL674] |  |  |  |  | IC50 [3, 9]: 0.98 nM; SI 1B1:HLM [4]: >10204; IC50 [5, 10]: 5080 nM; SI 1B1:1A1 [5]: 5187; IC50 [6]: > 10000 nM
26 | c1ccc(-c2nc(-c3cccnc3)cs2)nc1 [GL681] |  |  |  |  | IC50 [3, 9]: 2390 nM; SI 1B1:HLM [4]: 0.14; IC50 [5, 10]: 85 nM; SI 1B1:1A1 [5]: 0.035; IC50 [6]: 3240 nM
27 | COc1cc(OC)cc(-c2nc(-c3ccc(F)cc3)cs2)c1 [GL683] |  |  |  |  | IC50 [3, 9]: < 0.01 nM; IC50 [6]: > 10000 nM
28 | COc1cc(OC)cc(-c2nc(-c3cccc(C(F)(F)F)c3)cs2)c1 [GL684] |  |  |  |  | IC50 [3, 9]: < 0.01 nM; SI 1B1:HLM [4]: >1000000; IC50 [5, 10]: 2780 nM; SI 1B1:1A1 [5]: >27800; IC50 [6]: > 10000 nM
